Consider 12 compounds from the SangsterLogP compilation.

Molecules are shown by their SMILES.

The data set in a line: method code SF-HPLC, from DOI: 10.1016/0378-5173(85)90030-4.
Consider `CCCC(=O)OCn1ncc2c(=O)[nH]cnc21`, for which the logP worked out at 0.6.

`CCOC(=O)OCn1ncc2c(=O)[nH]cnc21` came in with a logP of 0.21.

Regarding `CC(C)(C)C(=O)OCn1ncc2c(=O)[nH]cnc21`, the logP was determined as 1.07.

In the case of `O=C(OCn1ncc2c(=O)[nH]cnc21)c1ccccc1`, the logP came to 1.5.

Consider `O=C(OCn1ncc2c(=O)[nH]cnc21)c1cccnc1`, for which the logP stood at 0.27.

As for `CC(C)(C)C(=O)OCn1cnc2c(cnn2COC(=O)C(C)(C)C)c1=O`, the logP turned out to be 2.5.

Compound `CC(C)(C)C(=O)OCn1cc2c(=O)[nH]cnc2n1` showed a logP of 0.79.

Take `CC(C)(C)C(=O)OCn1cc2c(=O)n(COC(=O)C(C)(C)C)cnc2n1`: the logP amounted to 2.34.

The compound `CCCC(=O)OCn1cnc2c(cnn2COC(=O)CCC)c1=O` showed a logP of 1.82.

For `CC(=O)OCn1ncc2c(=O)[nH]cnc21`, the logP was -0.35.

`CCN(CC)C(=O)CCC(=O)OCn1ncc2c(=O)[nH]cnc21` displayed a logP of -0.22.

On to `CCCC(=O)OCn1cc2c(=O)[nH]cnc2n1`, for which the logP was 0.33.

A word on the logP: it is a log measure of how a compound divides between an organic and an aqueous phase. A low value points to a more hydrophilic compound.
